Patent EP0511816B1, “Neurotrophic peptide derivative” (SUMITOMO PHARMACEUTICALS COMPANY, LIMITED, priority 1991, dated 1999)
Ends that are not written are not given here. Peptide text beside a SMILES is read from it.

Key:
[1] = test system: tissue of medial septum nuclei; test: neurotrophic activity: acceleration of acetylcholine synthesis in medial septum nuclei tissue (method of Ojika et al.); type: cell-based; conditions: qualitative statement, compared with rat-derived HCNP; no figures given
Description: The neurotrophic activity (also called neurotrophic factor activity) refers to, for example, an action of regulating differentiation and maturation of neuronal cells, namely, an action of accelerating the acetylcholine synthesis in the tissue of medial septum nuclei which is rich in cholinergic neurons.
The human-derived neurotrophic peptide or its derivatives of the present invention can regulate differentiation and maturation of neuronal cells. That is, the neurotrophic peptide and derivatives thereof accelerate the acetylcholine synthesis in the tissue of medial septum nuclei. The biological activity can be determined by the method of Ojika, K., et al. (Reference 66).

[2] = test system: tissue of medial septum nuclei; conditions: rat medial septum nuclei acetylcholinergic neuron; Reference 1; cited from earlier work

| Compound | neurotrophic activity [1] | production of acetylcholine [2] |
| --- | --- | --- |
| CC(C)C[C@H](NC(=O)[C@@H]1CCCN1C(=O)CNC(=O)[C@H](CO)NC(=O)[C@H](Cc1c[nH]c2ccccc12)NC(=O)[C@H](CCCCN)NC(=O)[C@H](CO)NC(=O)[C@H](CC(C)C)NC(=O)[C@H](CC(=O)O)NC(=O)[C@@H](NC(=O)[C@@H]1CCCN1)C(C)C)C(=O)O [hHCNP] (H-PVDLSKWSGPL-OH) | neurotrophic activity similar to rat-derived HCNP was noted | – |
| AADISQWAGPL [HCNP, Hippocampal cholinergic neurotrophic peptide of 11 amino acid residues isolated from hippocampal tissue of neonatal rat by Ojika et al] | – | enhances production of acetylcholine |
